Target: T1, DGAT3 (Chlamydomonas reinhardtii, UniProt A8IMA8)
T1 construct: gene CHLRE_06g310200v5; Trp216, Trp218, Tyr294 (only Trp/Tyr residues); 18 Asp, 22 Glu, 6 Phe, 9 His; chloroplast protein
T1 sequence (A8IMA8 2-346): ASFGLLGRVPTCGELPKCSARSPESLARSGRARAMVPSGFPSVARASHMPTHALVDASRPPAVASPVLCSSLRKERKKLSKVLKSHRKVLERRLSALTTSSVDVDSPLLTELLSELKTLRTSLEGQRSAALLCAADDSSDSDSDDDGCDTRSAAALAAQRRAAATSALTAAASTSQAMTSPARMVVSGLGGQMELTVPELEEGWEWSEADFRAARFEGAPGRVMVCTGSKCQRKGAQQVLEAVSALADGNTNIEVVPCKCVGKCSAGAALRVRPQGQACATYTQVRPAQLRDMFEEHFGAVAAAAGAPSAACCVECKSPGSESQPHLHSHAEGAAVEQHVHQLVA
Experiment: steady-state intrinsic Trp fluorescence anisotropy titration with lipid vesicles
Format: binding
Conditions: partition coefficient (protein between water and lipid phase), not a Kd; anionic POPG vesicles (bilayer, not monomeric lipid); 5 uM protein, 50 mM Tris, 100 mM NaCl, 5 mM TCEP, pH 8; 25 °C

Kp: ~ 40,000
SMILES: CCCCCCCC/C=C\CCCCCCCC(=O)O[C@H](COC(=O)CCCCCCCCCCCCCCC)COP(=O)(O)OCC(O)CO (mixture of isomers) [POPG, 1-palmitoyl-2-oleoyl-sn-glycero-3-phospho-(1′-rac-glycerol)]

Source: paper PMC11852920, “The Diacylglycerol Acyltransferase 3 of Chlamydomonas reinhardtii Is a Disordered Protein Capable of Binding to Lipids Derived from Chloroplasts” (Biomolecules, 2025)
